From ChEMBL document CHEMBL1201862, “PubChem BioAssay data set” (2004) come the findings set out here.

Among the test systems are SK-MEL-5; DU-145; A498; RPMI-8226; SF-268; COLO 205; NCI-H460; M14; T47D; SNB-75; HT-29; K562; OVCAR-5; BT-549; UACC-257; NCI/ADR-RES; Hs-578T; SF-539; MDA-N.
What all share (test): NCI anticancer screen, dose series, 48 h

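The compound was tested at five concentrations on cells cultured in 96-well plates, with a 48-hour exposure period. The concentration for 50% growth inhibition is given as GI50.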 The source made the active and inactive calls. Rule as the data show it: active = GI50 up to about 1.1 µM and inactive = higher.

For `Cc1ccc(NC(=O)c2ccccc2C(=O)O)cc1C`, the GI50 with SK-MEL-5, in the assay with DU-145, in the assay with A498, in the assay on RPMI-8226, in the assay on SF-268 and with COLO 205 was > 100 µM (inactive) each time. The GI50 with NCI-H460, with M14, in the assay on T47D, in the assay with SNB-75, in the assay on HT-29 and in the assay on K562 was > 100 µM (inactive) each time. Further, the GI50 in the assay with OVCAR-5, in the assay on BT-549, in the assay on UACC-257, with NCI/ADR-RES, in the assay on Hs-578T and with SF-539 was > 100 µM (inactive) throughout. The GI50 with MDA-N is > 100 µM (inactive).

With `COc1cc(C2c3cc4c(cc3OC(N3CCCC3)C2C)OCO4)cc(OC)c1O` (stereo not given), the GI50 is 4.9 µM (inactive) in the assay on SK-MEL-5; 31.7 µM (inactive) in the assay on DU-145; 21.1 µM (inactive) with A498; 45.6 µM (inactive) in the assay with RPMI-8226; 22.9 µM (inactive) in the assay on SF-268; 23.1 µM (inactive) in the assay with COLO 205. The GI50 with NCI-H460 is 16.3 µM (inactive); in the assay with M14 it was 16 µM (inactive); in the assay with T47D, 31.8 µM (inactive); in the assay on SNB-75, 4.26 µM (inactive); in the assay on HT-29, 17.4 µM (inactive); in the assay with K562, 4.88 µM (inactive). Besides, the GI50 with OVCAR-5 was 61.5 µM (inactive); in the assay on BT-549 it was 13.3 µM (inactive); with UACC-257, 35.6 µM (inactive); in the assay with NCI/ADR-RES, 5.93 µM (inactive); in the assay on Hs-578T, 4.66 µM (inactive); in the assay on SF-539, 14.9 µM (inactive). For the same compound, the GI50 in the assay with MDA-N was 2.31 µM (inactive).

Regarding `c1ccc2c(c1)N[C@@H]1c3[nH]c4ccccc4c3CC[C@H]21`, the GI50 is 14.3 µM (inactive) with SK-MEL-5; 16.9 µM (inactive) in the assay with DU-145; 16.7 µM (inactive) in the assay on A498; 14.7 µM (inactive) in the assay on RPMI-8226; 22.4 µM (inactive) in the assay with SF-268; 14.7 µM (inactive) in the assay with COLO 205. Moreover, the GI50 in the assay on NCI-H460 is 16.8 µM (inactive); in the assay on M14 it was 13.5 µM (inactive); with T47D, 16.7 µM (inactive); in the assay on SNB-75, 1.3 µM (inactive); in the assay with HT-29 it was 15.6 µM (inactive); with K562, 14 µM (inactive). Further, the GI50 is 13.2 µM (inactive) in the assay on OVCAR-5; 18.8 µM (inactive) in the assay on BT-549; 26.9 µM (inactive) with UACC-257; 13.6 µM (inactive) with NCI/ADR-RES; 10.2 µM (inactive) in the assay on Hs-578T; 16.6 µM (inactive) with SF-539. In addition, the GI50 in the assay with MDA-N is 19.6 µM (inactive).

Regarding `O=C1CSC(c2ccccc2)N1c1nc2cc3sc(N4C(=O)CSC4c4ccccc4)nc3cc2s1` (stereo not given), the GI50 was 32.3 µM (inactive) in the assay with SK-MEL-5; 15.2 µM (inactive) in the assay on DU-145; > 100 µM (inactive) with A498; 71.1 µM (inactive) with RPMI-8226; > 87.3 µM (inactive) with SF-268; 2.85 µM (inactive) with COLO 205. Also, the GI50 in the assay on NCI-H460 is 3.1 µM (inactive); in the assay with M14 it was > 87.3 µM (inactive); with T47D, 61 µM (inactive); in the assay on SNB-75, 38 µM (inactive); with HT-29 it was 19.1 µM (inactive); in the assay on K562, 47.4 µM (inactive). Also, the GI50 in the assay on OVCAR-5 is 60 µM (inactive); with BT-549 it was 37.6 µM (inactive); in the assay on UACC-257 it was 85.1 µM (inactive); in the assay on NCI/ADR-RES, 25.2 µM (inactive); in the assay with Hs-578T, > 51.2 µM (inactive); in the assay on SF-539, 3.03 µM (inactive). Also, in the assay on MDA-N, the GI50 is > 64.4 µM (inactive).

Regarding `C1CCSCCCCSCCCCSCCCCSC1`, the GI50 in the assay with SK-MEL-5, in the assay with DU-145, with A498, in the assay with RPMI-8226, with SF-268 and in the assay on COLO 205 was > 100 µM (inactive) each time. For the same compound, the GI50 with NCI-H460 was > 100 µM (inactive); in the assay on M14, > 100 µM (inactive); in the assay on T47D it was > 100 µM (inactive); in the assay with SNB-75, 64 µM (inactive); in the assay with HT-29, > 100 µM (inactive); with K562, > 100 µM (inactive). Besides, the GI50 with OVCAR-5, in the assay on BT-549, in the assay on UACC-257, with NCI/ADR-RES, in the assay on Hs-578T and in the assay on SF-539 was > 100 µM (inactive) each time. Besides, in the assay on MDA-N, the GI50 was > 100 µM (inactive).

Consider `COc1ccc(Cc2cc(Cc3ccc(OC)cc3)cc(Cc3ccc(OC)cc3)c2)cc1`, for which the GI50 with DU-145, in the assay with A498, with RPMI-8226, with SF-268, in the assay with NCI-H460 and in the assay on M14 was > 100 µM (inactive) each time. The GI50 in the assay on T47D, with SNB-75, in the assay on HT-29, in the assay with K562, in the assay on OVCAR-5 and in the assay with BT-549 was > 100 µM (inactive) in each case. Moreover, the GI50 in the assay on UACC-257 was > 100 µM (inactive); with NCI/ADR-RES it was > 100 µM (inactive); with Hs-578T, > 100 µM (inactive); in the assay with SF-539 it was > 100 µM (inactive); in the assay on MDA-N it was 6.58 µM (inactive).

Turning to `COC(=O)c1ccc(/C=C/c2cc(O)ccc2O)cc1`, the GI50 with SK-MEL-5 is 3.82 µM (inactive); in the assay with DU-145, 14.9 µM (inactive); with A498 it was 5.15 µM (inactive); in the assay on RPMI-8226, 0.333 µM (active); in the assay with SF-268, 2.15 µM (inactive); in the assay on COLO 205, 4.97 µM (inactive). For the same compound, the GI50 in the assay with NCI-H460 is 8.45 µM (inactive); with M14, 13.1 µM (inactive); in the assay on T47D it was 1.6 µM (inactive); in the assay with SNB-75 it was 15 µM (inactive); in the assay on HT-29, 30.3 µM (inactive); in the assay with K562, 1.04 µM (active). Further, the GI50 in the assay on OVCAR-5 was 5.07 µM (inactive); in the assay on BT-549 it was 1.11 µM (active); in the assay with UACC-257 it was 6.27 µM (inactive); in the assay on NCI/ADR-RES, 2.08 µM (inactive); with Hs-578T, 4.95 µM (inactive); with SF-539, 1.6 µM (inactive). Besides, the GI50 in the assay with MDA-N is 3.44 µM (inactive).

In the case of `CC1(C)CN=C(c2ccc3ccccc3c2O)N1`, the GI50 in the assay with SK-MEL-5, in the assay with DU-145, in the assay on A498, in the assay on RPMI-8226, with SF-268 and with COLO 205 was > 100 µM (inactive) in each case. The GI50 with NCI-H460, with M14, with T47D, with SNB-75, in the assay with K562 and in the assay with OVCAR-5 was > 100 µM (inactive) each time. In addition, the GI50 in the assay on BT-549, in the assay on UACC-257, in the assay on NCI/ADR-RES, in the assay with Hs-578T, in the assay with SF-539 and with MDA-N was > 100 µM (inactive) each time.

In the case of `NCCCNCCCCN1CCOC1=O`, the GI50 in the assay with SK-MEL-5, in the assay on DU-145, in the assay with A498, with RPMI-8226, in the assay on SF-268 and in the assay with COLO 205 was > 100 µM (inactive) throughout. The GI50 in the assay on NCI-H460, with M14, in the assay with T47D, in the assay on SNB-75, in the assay on HT-29 and in the assay on K562 was > 100 µM (inactive) in each case. For the same compound, the GI50 with OVCAR-5, with BT-549, in the assay with UACC-257, in the assay with NCI/ADR-RES, in the assay with Hs-578T and in the assay with SF-539 was > 100 µM (inactive) throughout. The GI50 in the assay on MDA-N was > 100 µM (inactive).

`CCOC1Oc2ccccc2-c2nc(SC)ncc21` (stereo not given): the GI50 is 52.5 µM (inactive) in the assay with SK-MEL-5; 96.6 µM (inactive) in the assay on DU-145; 28.9 µM (inactive) in the assay with A498; 70 µM (inactive) in the assay with RPMI-8226; > 100 µM (inactive) in the assay with SF-268; > 100 µM (inactive) in the assay with COLO 205. The GI50 with NCI-H460 was 55.6 µM (inactive); with M14 it was > 100 µM (inactive); in the assay on T47D, 27.4 µM (inactive); in the assay on SNB-75 it was > 100 µM (inactive); in the assay with HT-29, 52.4 µM (inactive); in the assay with OVCAR-5, > 100 µM (inactive). Further, the GI50 in the assay with BT-549 was 78 µM (inactive); with UACC-257 it was > 100 µM (inactive); in the assay with NCI/ADR-RES, 82.8 µM (inactive); in the assay on Hs-578T it was 79.8 µM (inactive); with SF-539 it was > 100 µM (inactive); in the assay with MDA-N it was 64.1 µM (inactive).

Consider `N=C(N)N/N=C/c1c(-c2ccc(Cl)cc2)nc2n1CCS2`, for which the GI50 was 3.32 µM (inactive) with SK-MEL-5; 12.8 µM (inactive) in the assay on DU-145; 12.7 µM (inactive) with A498; 7.53 µM (inactive) in the assay with RPMI-8226; 11.5 µM (inactive) in the assay on SF-268; 4.38 µM (inactive) with COLO 205. Further, the GI50 is 13.1 µM (inactive) in the assay with NCI-H460; 2.94 µM (inactive) in the assay with M14; 13.6 µM (inactive) in the assay on T47D; 13.3 µM (inactive) in the assay with SNB-75; 8.87 µM (inactive) in the assay on HT-29; 2.98 µM (inactive) with K562. The GI50 in the assay on OVCAR-5 was 15.1 µM (inactive); in the assay with BT-549, 14.5 µM (inactive); with UACC-257, 14.3 µM (inactive); in the assay with NCI/ADR-RES, 16.4 µM (inactive); in the assay on Hs-578T it was 24.3 µM (inactive); with SF-539, 11.7 µM (inactive). The GI50 with MDA-N is 11 µM (inactive).
